# Source: patent US10150737B2, “Compounds for controlling arthropods” (priority 2013, dated 2018)
# Key:
# Spodoptera frugiperda = Spodoptera frugiperda - spray test; format: in vivo; details: caterpillars on maize leaf discs, after 7 days
# Outline: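 Percent mortality of Spodoptera frugiperda caterpillars scored 7 days after placing them on dried maize leaf discs sprayed at the desired concentration. Spray formulation: compound dissolved in acetone/dimethylformamide, made up with water containing 1000 ppm emulsifier.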
# Myzus persicae = Myzus persicae - spray test; format: in vivo; details: Chinese cabbage leaf discs, after 6 days
# Protocol: Solvent: 78 parts by weight of acetone and 1.5 parts by weight of dimethylformamide
# Emulsifier: alkylaryl polyglycol ether
# To produce an appropriate active ingredient formulation, 1 part by weight of active ingredient is dissolved using the specified parts by weight of solvent and made up with water containing an emulsifier concentration of 1000 ppm until the desired concentration is attained. To produce further test concentrations, the preparation is diluted with emulsifier-containing water.
# Discs of Chinese cabbage leaves (Brassica pekinensis) infested by all stages of the green peach aphid (Myzus persicae) are sprayed with an active ingredient formulation of the desired concentration.
# After 6 days, efficacy in % is determined. 100% means that all the aphids have been killed; 0% means that none of the aphids have been killed.
# Phaedon cochleariae = Phaedon cochleariae - spray test; format: in vivo; details: larvae on Chinese cabbage leaf discs, after 7 days
# Outline: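 Mortality of mustard beetle larvae was scored as % at day 7 on Brassica pekinensis leaf discs. Discs had been treated by spraying at the desired concentration, using an acetone/dimethylformamide solution diluted in water with 1000 ppm alkylaryl polyglycol ether, and dried before larvae were added.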
# Boophilus microplus = Boophilus microplus - injection test; format: in vivo; details: application rate 20 μg/animal, injection into engorged adult female ticks, after 7 days
# Outline: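 Five engorged adult female cattle ticks each received a 1 μl abdominal injection of compound solution in dimethyl sulphoxide. Fertile egg laying was assessed at 7 days, with doubtful eggs incubated about 42 days until hatch. 0% efficacy means all eggs fertile.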
# Ctenocephalides felis [1] = assay: Ctenocephalides felis - oral test; format: in vivo; details: application rate 100 ppm in citrated cattle blood; after 2 days
# Outline: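 Roughly 20 unfed adult C. felis imbibe compound-dosed citrated cattle blood (DMSO formulation) across parafilm from a cylinder above their gauze chamber; percentage mortality recorded at day 2.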
# Lucilia cuprina = Lucilia cuprina test; format: in vivo; details: application rate 100 ppm; L1 larvae; after 2 days
# Outline: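 Mortality (%) of first-instar blowfly larvae, about 20 per vessel, recorded 2 days after exposure to compound-treated minced horsemeat. Compound dissolved in dimethyl sulphoxide, then water-diluted to the desired concentration.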
# Ctenocephalides felis [2] = assay: Ctenocephalides felis - in vitro contact tests with adult cat fleas; format: in vivo; details: application rate 5 μg/cm2 (=500 g/ha); after 48 h; fleas dead or moribund
# Protocol: For the coating of the test tubes, 9 mg of active ingredient are first dissolved in 1 ml of acetone p.a. and then diluted to the desired concentration with acetone p.a. 250 μl of the solution are distributed homogeneously on the inner walls and base of a 25 ml test tube by turning and rocking on an orbital shaker (rocking rotation at 30 rpm for 2 h). With 900 ppm active ingredient solution and internal surface area 44.7 cm^2, given homogeneous distribution, an area-based dose of 5 μg/cm^2 is achieved.
# After the solvent has evaporated off, the tubes are populated with 5-10 adult cat fleas (Ctenocephalides felis), sealed with a perforated plastic lid and incubated in a horizontal position at room temperature and ambient humidity. After 48 h, efficacy is determined. To this end, the test tubes are stood upright and the fleas are knocked to the base of the tube. Fleas which remain motionless at the base or move in an uncoordinated manner are considered to be dead or moribund.
# 100% efficacy means that all the fleas were dead or moribund. 0% efficacy means that no fleas were harmed.
# Tetranychus urticae = Tetranychus urticae - spray test, OP-resistant; format: in vivo; details: bean leaf discs, after 6 days
# Outline: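 Mortality (%) read on day 6 after spraying Phaseolus vulgaris leaf discs carrying all mite stages with formulations at the desired concentration. Formulation: active ingredient in acetone plus dimethylformamide, made up with emulsifier-containing water (1000 ppm alkylaryl polyglycol ether).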
# Musca domestica = Musca domestica test; format: in vivo; details: application rate 100 ppm; adult houseflies; after 2 days
# Outline: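 10 adult flies per vessel; sugar-solution sponge dosed with active ingredient formulation (DMSO concentrate diluted in water to desired concentration). Read-out: % kill at 2 days.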
# [3] = logP determination by HPLC on a reversed-phase column (C18); format: physicochemical; details: for logP^a): HPLC-MS method a); for log P: HPLC-MS
# [4] = tested on: Boophilus microplus Parkhurst strain, SP-resistant; assay: Boophilus microplus - dip test; format: in vivo; details: application rate 100 ppm; dip of engorged adult female ticks; after 7 days
# Protocol: Test animals: cattle ticks (Boophilus microplus) Parkhurst strain, SP-resistant
# Solvent: dimethyl sulphoxide
# 10 mg of active ingredient are dissolved in 0.5 ml of dimethyl sulphoxide. For the purpose of producing a suitable formulation, the active ingredient solution is diluted with water to the concentration desired in each case.
# This active ingredient formulation is pipetted into tubes. 8-10 adult engorged female cattle ticks (Boophilus microplus) are transferred into a further tube with holes. The tube is immersed into the active ingredient formulation, and all the ticks are completely wetted. After the liquid has run out, the ticks are transferred on filter discs into plastic dishes and stored in a climate-controlled room.
# Efficacy is assessed after 7 days by laying of fertile eggs. Eggs which are not visibly fertile are stored in a climate-controlled cabinet until the larvae hatch after about 42 days. An efficacy of 100% means that none of the ticks has laid any fertile eggs; 0% means that all the eggs are fertile.
# [5] = reversed-phase column (C18), Table I-T3
SMILES,efficacy (Spodoptera frugiperda; application rate 500 g/ha) [%],efficacy (Myzus persicae; application rate 500 g/ha) [%],efficacy (Phaedon cochleariae; application rate 500 g/ha) [%],efficacy (laying of fertile eggs) (Boophilus microplus) [%],efficacy (kill) (Ctenocephalides felis [1]) [%],efficacy (kill) (Lucilia cuprina) [%],efficacy (Ctenocephalides felis [2]) [%],efficacy (Tetranychus urticae; application rate 500 g/ha) [%],efficacy (kill) (Musca domestica) [%],logP^a) [3],"logP^a) [3, 5]",efficacy (Spodoptera frugiperda; application rate 100 g/ha) [%],efficacy (Myzus persicae; application rate 100 g/ha) [%],efficacy (Phaedon cochleariae; application rate 100 g/ha) [%],efficacy (laying of fertile eggs) [4] [%],efficacy (Tetranychus urticae; application rate 100 g/ha) [%],"pest or weed control at 0.02 mg (Boophilus microplus; Rhipicephalus microplus, 168 h, read-out: efficacy (laying of fertile eggs)) [%]",logP^a) ([3]; reversed-phase column (C18)),"log P [3, 5]"
Cc1cc(C(F)(C(F)(F)F)C(F)(F)F)cc(C)c1-n1cc(-c2cncc(C(=O)NC3CC3)c2)cn1 [I-T3-7],100,100,100,100,100,100,100,100,80,3.4,3.4,,,,,,,,
Cc1cc(C(F)(C(F)(F)F)C(F)(F)F)cc(C)c1-n1cc(-c2cccc(C(=O)NC3CC3)c2)cn1 [I-T3-29],100,90,100,100,100,100,100,100,100,3.3,3.3,,,,,,,,
CCc1cc(C(F)(C(F)(F)F)C(F)(F)F)ccc1-n1cc(-c2ccc(Cl)c(C(=O)NC3CC3)c2)cn1 [I-T3-39],,,,100,100,100,,,,4.6,4.6,100,90,100,100,100,,,
"O=C(NC1CC1)c1cc(-c2cnn(-c3c(F)cc(C(F)(F)F)cc3F)c2)ccc1Cl [I-T3-48, 2-chloro-N-cyclopropyl-5-[1-[2,6-difluoro-4-(trifluoromethyl)phenyl]pyrazol-4-yl]benzamide]",,,,,,,,,100,,,,,,100,,100,,
CCc1cc(C(F)(C(F)(F)F)C(F)(F)F)cc(C)c1-n1cc(-c2cncc(C(=O)NC3(C#N)CC3)c2)cn1 [I-T3-76],100,,100,100,100,90,,100,90,3.4,3.4,,90,,,,,,
CCc1cc(C(F)(C(F)(F)F)C(F)(F)F)cc(C)c1-n1cc(-c2cncc(C(=O)NC3CC3)c2)cn1 [I-T3-77],100,,100,100,100,100,,100,100,3.4,3.4,,100,,,,,,
Cc1cc(C(F)(C(F)(F)F)C(F)(F)F)cc(C(F)(F)F)c1-n1cc(-c2ccc(Cl)c(C(=O)NC3CSC3)c2)cn1 [I-T3-85],,,,100,100,100,100,,100,4.7,4.7,100,90,100,,100,,,
N#CC1(NC(=O)c2cc(-c3cnn(-c4c(Cl)cc(OC(F)(F)F)cc4Cl)c3)ccc2Cl)CC1 [I-T3-87],,,,100,100,100,100,,100,3.6,3.6,100,90,100,,100,,,
Cc1ncc(-c2cnn(-c3c(Cl)cc(C(F)(F)F)cc3Cl)c2)cc1C(=O)NC1CC1 [I-T3-127],,,,100,100,90,100,,,,,,100,100,,100,,2.5,2.5
Cc1ncc(-c2cnn(-c3c(Cl)cc(C(F)(F)F)cc3Cl)c2)cc1C(=O)N(C)C1CC1 [I-T3-128],,,,100,100,,100,,,,,,100,100,,,,2.8,2.8
Cc1ncc(-c2cnn(-c3c(Cl)cc(C(F)(F)F)cc3Cl)c2)cc1C(=O)NC1(C#N)CC1 [I-T3-129],,,,100,100,,100,,80,,,,100,100,,100,,2.6,2.6
Cc1ncc(-c2cnn(-c3c(Cl)cc(C(F)(F)F)cc3Cl)c2)cc1C(=O)N(C)C1(C#N)CC1 [I-T3-132],,,,100,100,,100,,,,,,90,100,,100,,2.9,2.9
Cc1ncc(-c2cnn(-c3c(Cl)cc(C(F)(C(F)(F)F)C(F)(F)F)cc3Cl)c2)cc1C(=O)N(C)C1CC1 [I-T3-133],,,,100,100,100,100,,100,,,100,,100,100,100,,3.7,3.7
CCN(C(=O)c1cc(-c2cnn(-c3c(Cl)cc(C(F)(F)F)cc3Cl)c2)cnc1Cl)C1CC1 [I-T3-145],,,,100,100,100,100,,90,,,100,90,100,,100,,3.8,3.8
